Results taken from US8367835B2, “Cyclic amine-1-carboxylic acid ester derivative and pharmaceutical composition containing the same” (Dainippon Sumitomo Pharma Co., Ltd., priority 2008, dated 2013).

Experiments:
[1] = tested on: mechanical hyperalgesia in a neuropathic pain model (rat Chung model); assay: Analgesic effect: von Frey filament test using rat Chung model, transdermal administration; format: in vivo; settings: 0.1% formulation applied transdermally to plantar surface of left hindlimb once a day for 2 weeks; measured on the day after last administration; pre-administration value = 100%
Procedure: The present test is to measure the analgesic effect based on the improvement level of the mechanical hyperalgesia in a neuropathic pain model as the indicator by transdermally administering the compound of the present invention and was carried out in accordance with the method of Kim and Chung [Pain, 50, 355-363 (1992)] or the method of Tsuda et al. [Nature, 424, 778-783, 2003].
Specifically, using Jcl: Wistar male rat (7 to 9 rats/group, 5 weeks of age at the time of surgery), spinal nerves were injured to induce hyperalgesia and the withdrawal threshold was measured using the von Frey filament. In the surgery, under Pentobarbital anesthesia, the left L5 spinal nerve was exposed, ligated near the spinal cord using a silk suture (5-0) and transected just peripheral to the ligation. After suturing the incision and keeping the rats for 2 weeks, the rats were subjected to the von Frey filament test. The measurement of the mechanical hyperalgesia was carried out by applying von Frey filaments (1.0, 2.0, 4.0, 8.0, 15.0 g) to the plantar surface of the left hindlimb, and the filament intensity at which 50% or higher withdrawal behavior was observed was defined as the withdrawal threshold.
After dissolving the test compounds in a mixture of Tween 80 and ethanol, the obtained solution was mixed with a hydrophilic ointment to prepare a formulation having a concentration of 0.1%. The withdrawal threshold before administering the test compound was measured to define the pre-administration value (100%). Thereafter, once a day, for 2 weeks, the formulation having a concentration of 0.1% was transdermally administered (applied) to the plantar surface of the left hindlimb, the von Frey filament test was carried out on the following day of the last administration to measure the post-administration value. Further, the same formulation as above but free of the test compound was prepared as a vehicle control and the same test was carried out.
The analgesic effect is a relative ratio when a test compound pre-administration value calculated using the following numerical formula is 100%. The pre-administration withdrawal threshold was 3.3±0.1 g (119 cases) (the withdrawal threshold of sham-operated rat was 10 to 15 g). %=(test compound post-administration withdrawal threshold value/pre-administration withdrawal threshold value)×100

[2] = target: T1, TRPV1 (Rattus norvegicus, UniProt O35433); assay: TRPV1 agonist activity by intracellular calcium level (FLIPR method); format: cell-based; settings: 1 μM; rat dorsal root ganglion primary culture cells; read-out: Value (%) when fluorescence intensity for capsaicin (1 μM) is 100%
T1 construct: using cultured rat dorsal root ganglion cells which express TRPV1 abundantly; endogenous in cells; host or cells: primary culture of dorsal root ganglion cells from 7 day old Wistar rat
T1 sequence (O35433 whole entry): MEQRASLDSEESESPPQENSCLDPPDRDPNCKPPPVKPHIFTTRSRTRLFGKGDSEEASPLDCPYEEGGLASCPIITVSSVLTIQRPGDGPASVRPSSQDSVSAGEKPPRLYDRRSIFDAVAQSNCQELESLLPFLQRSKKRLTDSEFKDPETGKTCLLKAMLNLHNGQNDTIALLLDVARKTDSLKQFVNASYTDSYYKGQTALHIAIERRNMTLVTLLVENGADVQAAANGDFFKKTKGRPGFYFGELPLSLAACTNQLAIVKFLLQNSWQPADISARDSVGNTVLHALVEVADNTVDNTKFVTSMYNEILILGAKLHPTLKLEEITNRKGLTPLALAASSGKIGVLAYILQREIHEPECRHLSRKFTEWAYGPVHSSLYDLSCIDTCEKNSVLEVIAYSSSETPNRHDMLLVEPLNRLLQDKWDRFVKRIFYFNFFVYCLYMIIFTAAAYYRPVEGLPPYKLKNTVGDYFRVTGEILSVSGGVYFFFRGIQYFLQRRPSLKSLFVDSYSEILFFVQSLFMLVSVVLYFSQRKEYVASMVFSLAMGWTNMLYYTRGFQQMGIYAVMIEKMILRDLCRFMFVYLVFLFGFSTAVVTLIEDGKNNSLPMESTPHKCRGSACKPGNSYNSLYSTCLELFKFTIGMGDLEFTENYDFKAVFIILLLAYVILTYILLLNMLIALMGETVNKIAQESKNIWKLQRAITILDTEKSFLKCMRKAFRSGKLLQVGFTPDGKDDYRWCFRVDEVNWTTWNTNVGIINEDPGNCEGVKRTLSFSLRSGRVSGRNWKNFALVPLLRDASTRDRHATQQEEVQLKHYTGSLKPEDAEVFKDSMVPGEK
Source text: The test is to measure the elevation of intracellular calcium level as the indicator of TRPV1 agonist activity of a test compound using cultured rat dorsal root ganglion cells which express TRPV1 abundantly, and carried out in accordance with the method of Jerman et al. (Jerman, J. C. et al., Comparison of effects of anandamide at recombinant and endogenous rat vanilloid receptors. Br J Anaesth, 2002. 89(6): p. 882-7). More specifically, the dorsal root ganglion was removed from a 7 day old Wistar rat, and the cells were isolated by collagenase-trypsin treatment. Subsequently, the primary cells was cultured in a CO2 incubator controlled at 5% CO2 and 37° C. for 2 days. The culture medium used was Neurobasal™ medium supplemented with L-glutamine, nerve growth factor, N-2-Supplement, Penicillin-Streptomycin, 5-Fluoro-2′-deoxyuridine (culture day 1 only) were added to.
FLIPR^TETRA system (Molecular Devices Corp.) was used to measure the intracellular calcium concentration. As an indicator of TRPV1 agonistic activity, the fluorescence intensity elevation was monitored when a test compound is applied to the rat dorsal root ganglion primary culture cells loaded with a calcium-sensitive fluorescent reagent.

[3] = tested on: mechanical hyperalgesia in a neuropathic pain model (rat Chung model); assay: Analgesic effect in combination with Pregabalin: von Frey filament test using rat Chung model, i.pl. administration; format: in vivo
Procedure: The study was conducted using the same methods and evaluation criteria as in Test Example 1 with the exception of the administration route of the test compounds (see Test Example 1).
Using the von Frey filaments the test compound pre-administration values (pressure withdrawal threshold) were measured. Subsequently, 50 μl of a solution containing a test compound or vehicle control was intraplantarly injected to the left hindlimb using a microsyringe (intraplantar injection: i. pl. administration), and on the following day the withdrawal threshold was measured (effect of the test compound alone). Thereafter, 10 mg/kg of Pregabalin was orally administered and an hour later the withdrawal threshold was measured (combined effect).
Pregabalin was dissolved in distilled water. Physiological saline containing Tween 80 and ethanol was used as the vehicle control for the i. pl. administration.
The analgesic effect is a relative ratio when a pre-administration value calculated using the following numerical formula is 100%.

## COc1cc(CNC(=O)C2CCN(C(=O)OC3CCC(C)(C)CC3)CC2)ccc1O [Example 8]
[1]
  % to pre-administration value (withdrawal threshold): 191%
[2]
  Emax at 1 µM: 96%
[3]; 50 μl of 0.1% (W/V) solution intraplantar to left hindlimb, measured on the following day, test compound alone
  % to pre-administration value: (1) Test compound post-i. pl. administration value: 197%
[3]; test compound i.pl. the day before plus Pregabalin 10 mg/kg orally, measured an hour later, combined effect
  % to pre-administration value: (2) Pregabalin post-oral administration value (Test compound administered on the day before): 244%
other
  melting point: 111 °C
